Experimental data as given in ChEMBL document CHEMBL1140493, “Quantitative structure-activity relationship studies for prediction of antimicrobial activity of synthesized 2,4-hexadienoic acid derivatives” (Bioorg Med Chem Lett, 2007).
Converted amounts (≈) assume the structure as drawn.

Columns and labels:
Staphylococcus aureus = test: Antimicrobial activity against Staphylococcus aureus after 24 hrs by twofold serial dilution method; format: functional; settings: read-out: -Log MIC
Candida albicans = test: Antifungal activity against Candida albicans after 2 days by twofold serial dilution method; format: functional; settings: 48 h, read-out: -Log MIC
[1] = Partition coefficient, log P of the compound; settings: octanol/water
Aspergillus niger = test: Antifungal activity against Aspergillus niger after 7 days by twofold serial dilution method; format: functional; settings: 168 h, read-out: -Log MIC
Bacillus subtilis = test: Antimicrobial activity against Bacillus subtilis after 24 hrs by twofold serial dilution method; format: functional; settings: read-out: -Log MIC
Escherichia coli = test: Antimicrobial activity against Escherichia coli after 24 hrs by twofold serial dilution method; format: functional; settings: read-out: -Log MIC

| SMILES | MIC (Staphylococcus aureus) | MIC (Candida albicans) | logP [1] | MIC (Aspergillus niger) | MIC (Bacillus subtilis) | MIC (Escherichia coli) |
| --- | --- | --- | --- | --- | --- | --- |
| C/C=C/C=C/C(=O)Nc1cccc([N+](=O)[O-])c1 | 50.1 µM (≈ 11.6 µg/mL) | 47.9 µM (≈ 11.1 µg/mL) | 2.49 | 39.8 µM (≈ 9.24 µg/mL) | 34.7 µM (≈ 8.06 µg/mL) | 60.3 µM (≈ 14 µg/mL) |
| C/C=C/C=C/C(=O)Nc1ccc(OC)cc1 | 64.6 µM (≈ 14 µg/mL) | 50.1 µM (≈ 10.9 µg/mL) | 2.28 | 44.7 µM (≈ 9.71 µg/mL) | 45.7 µM (≈ 9.93 µg/mL) | 64.6 µM (≈ 14 µg/mL) |
| C/C=C/C=C/C(=O)N(CCO)CCO | 79.4 µM (≈ 15.8 µg/mL) | 50.1 µM (≈ 9.98 µg/mL) | 0.21 | – | 63.1 µM (≈ 12.6 µg/mL) | 91.2 µM (≈ 18.2 µg/mL) |
| C/C=C/C=C/C(=O)N(C)C | 79.4 µM (≈ 11.1 µg/mL) | 63.1 µM (≈ 8.78 µg/mL) | 1.1 | 79.4 µM (≈ 11.1 µg/mL) | 72.4 µM (≈ 10.1 µg/mL) | – |
| C/C=C/C=C/C(=O)Nc1ccccc1 | – | 66.1 µM (≈ 12.4 µg/mL) | 2.53 | 74.1 µM (≈ 13.9 µg/mL) | 66.1 µM (≈ 12.4 µg/mL) | – |
| C/C=C/C=C/C(=O)OCCCCCC | 100 µM (≈ 19.6 µg/mL) | 51.3 µM (≈ 10.1 µg/mL) | 3.5 | 63.1 µM (≈ 12.4 µg/mL) | 63.1 µM (≈ 12.4 µg/mL) | – |
| C/C=C/C=C/C(=O)OCCC(C)C | 63.1 µM (≈ 11.5 µg/mL) | 69.2 µM (≈ 12.6 µg/mL) | 3.04 | 69.2 µM (≈ 12.6 µg/mL) | 55 µM (≈ 10 µg/mL) | 100 µM (≈ 18.2 µg/mL) |
| C/C=C/C=C/C(=O)Nc1ccc(Cl)cc1 | 63.1 µM (≈ 14 µg/mL) | 50.1 µM (≈ 11.1 µg/mL) | 3.05 | 50.1 µM (≈ 11.1 µg/mL) | 44.7 µM (≈ 9.91 µg/mL) | 72.4 µM (≈ 16.1 µg/mL) |
| C/C=C/C=C/C(=O)Nc1ccccc1N | 63.1 µM (≈ 12.8 µg/mL) | 61.7 µM (≈ 12.5 µg/mL) | 1.75 | 69.2 µM (≈ 14 µg/mL) | 49 µM (≈ 9.91 µg/mL) | 69.2 µM (≈ 14 µg/mL) |
| C/C=C/C=C/C(=O)NCCO | – | 81.3 µM (≈ 12.6 µg/mL) | 0.41 | – | 91.2 µM (≈ 14.2 µg/mL) | – |
| C/C=C/C=C/C(=O)O [SORBIC ACID] | – | – | 1.47 | – | – | – |
| C/C=C/C=C/C(=O)Nc1ccc(Br)cc1 | 37.2 µM (≈ 9.9 µg/mL) | 46.8 µM (≈ 12.5 µg/mL) | 3.32 | 50.1 µM (≈ 13.3 µg/mL) | 47.9 µM (≈ 12.7 µg/mL) | 79.4 µM (≈ 21.1 µg/mL) |
| C/C=C/C=C/C(=O)OC [METHYL SORBATE] | 100 µM (≈ 12.6 µg/mL) | 79.4 µM (≈ 10 µg/mL) | 1.5 | 100 µM (≈ 12.6 µg/mL) | 79.4 µM (≈ 10 µg/mL) | – |
| C/C=C/C=C/C(=O)Nc1ccccc1Cl | 70.8 µM (≈ 15.7 µg/mL) | 56.2 µM (≈ 12.5 µg/mL) | 3.05 | 63.1 µM (≈ 14 µg/mL) | 56.2 µM (≈ 12.5 µg/mL) | 81.3 µM (≈ 18 µg/mL) |
| C/C=C/C=C/C(=O)N(c1ccccc1)c1ccccc1 | 50.1 µM (≈ 13.2 µg/mL) | 47.9 µM (≈ 12.6 µg/mL) | 4.46 | 39.8 µM (≈ 10.5 µg/mL) | 38 µM (≈ 10 µg/mL) | 58.9 µM (≈ 15.5 µg/mL) |
| C/C=C/C=C/C(=O)OC(C)(C)C | 74.1 µM (≈ 12.5 µg/mL) | 53.7 µM (≈ 9.03 µg/mL) | 2.33 | 74.1 µM (≈ 12.5 µg/mL) | 50.1 µM (≈ 8.43 µg/mL) | 83.2 µM (≈ 14 µg/mL) |
| O=C(O)c1cn(C2CC2)c2cc(N3CCNCC3)c(F)cc2c1=O [CIPROFLOXACIN] | 0.468 µM (≈ 0.155 µg/mL) | – | – | – | 0.468 µM (≈ 0.155 µg/mL) | 0.468 µM (≈ 0.155 µg/mL) |
| C/C=C/C=C/C(=O)Oc1cccc2cccnc12 | 12.9 µM (≈ 3.09 µg/mL) | 52.5 µM (≈ 12.6 µg/mL) | 3.27 | 38 µM (≈ 9.09 µg/mL) | 12.9 µM (≈ 3.09 µg/mL) | 12.9 µM (≈ 3.09 µg/mL) |
| C/C=C/C=C/C(=O)OCc1ccccc1 | 63.1 µM (≈ 12.8 µg/mL) | 61.7 µM (≈ 12.5 µg/mL) | 3.28 | 70.8 µM (≈ 14.3 µg/mL) | 69.2 µM (≈ 14 µg/mL) | 100 µM (≈ 20.2 µg/mL) |

More lines, in order of falling MIC (Bacillus subtilis), values ahead:

| MIC (Staphylococcus aureus) | MIC (Candida albicans) | logP [1] | MIC (Aspergillus niger) | MIC (Bacillus subtilis) | MIC (Escherichia coli) | SMILES |
| --- | --- | --- | --- | --- | --- | --- |
| – | 100 µM (≈ 12.6 µg/mL) | 0.59 | – | 100 µM (≈ 12.6 µg/mL) | – | C/C=C/C=C/C(=O)NN |
| – | 79.4 µM (≈ 11.1 µg/mL) | 1.19 | 89.1 µM (≈ 12.4 µg/mL) | 89.1 µM (≈ 12.4 µg/mL) | – | C/C=C/C=C/C(=O)NCC |
| – | 77.6 µM (≈ 10.9 µg/mL) | 1.84 | 100 µM (≈ 14 µg/mL) | 89.1 µM (≈ 12.5 µg/mL) | – | C/C=C/C=C/C(=O)OCC |
| 100 µM (≈ 12.5 µg/mL) | 79.4 µM (≈ 9.94 µg/mL) | 0.85 | 79.4 µM (≈ 9.94 µg/mL) | 79.4 µM (≈ 9.94 µg/mL) | – | C/C=C/C=C/C(=O)NC |
| – | 81.3 µM (≈ 12.4 µg/mL) | 2.24 | 79.4 µM (≈ 12.1 µg/mL) | 79.4 µM (≈ 12.1 µg/mL) | – | C=CCOC(=O)/C=C/C=C/C |
| 100 µM (≈ 16.8 µg/mL) | 74.1 µM (≈ 12.5 µg/mL) | 2.71 | 63.1 µM (≈ 10.6 µg/mL) | 74.1 µM (≈ 12.5 µg/mL) | – | C/C=C/C=C/C(=O)OCC(C)C |
| 100 µM (≈ 16.8 µg/mL) | 74.1 µM (≈ 12.5 µg/mL) | 2.71 | 74.1 µM (≈ 12.5 µg/mL) | 74.1 µM (≈ 12.5 µg/mL) | – | C/C=C/C=C/C(=O)OCCCC |
| – | 74.1 µM (≈ 12.5 µg/mL) | 2.72 | 83.2 µM (≈ 14 µg/mL) | 74.1 µM (≈ 12.5 µg/mL) | – | C/C=C/C=C/C(=O)OC(C)CC (stereo not given) |
| 100 µM (≈ 15.3 µg/mL) | 81.3 µM (≈ 12.5 µg/mL) | 1.66 | 100 µM (≈ 15.3 µg/mL) | 72.4 µM (≈ 11.1 µg/mL) | – | C/C=C/C=C/C(=O)NCCC |
| – | 70.8 µM (≈ 10.9 µg/mL) | 2.31 | 81.3 µM (≈ 12.5 µg/mL) | 70.8 µM (≈ 10.9 µg/mL) | – | C/C=C/C=C/C(=O)OCCC |
| 81.3 µM (≈ 12.5 µg/mL) | 63.1 µM (≈ 9.73 µg/mL) | 2.26 | 56.2 µM (≈ 8.67 µg/mL) | 63.1 µM (≈ 9.73 µg/mL) | – | C/C=C/C=C/C(=O)OC(C)C |
| 79.4 µM (≈ 14.5 µg/mL) | 50.1 µM (≈ 9.13 µg/mL) | 3.1 | 69.2 µM (≈ 12.6 µg/mL) | 63.1 µM (≈ 11.5 µg/mL) | 100 µM (≈ 18.2 µg/mL) | C/C=C/C=C/C(=O)OCCCCC |
| 77.6 µM (≈ 13.9 µg/mL) | 69.2 µM (≈ 12.4 µg/mL) | 1.82 | 63.1 µM (≈ 11.3 µg/mL) | 61.7 µM (≈ 11.1 µg/mL) | – | C/C=C/C=C/C(=O)N1CCCCC1 |
| 70.8 µM (≈ 14.2 µg/mL) | 61.7 µM (≈ 12.4 µg/mL) | 2.63 | 61.7 µM (≈ 12.4 µg/mL) | 61.7 µM (≈ 12.4 µg/mL) | 100 µM (≈ 20.1 µg/mL) | C/C=C/C=C/C(=O)NCc1ccccc1 |
| 95.5 µM (≈ 18 µg/mL) | 56.2 µM (≈ 10.6 µg/mL) | 3.18 | 47.9 µM (≈ 9.02 µg/mL) | 58.9 µM (≈ 11.1 µg/mL) | 74.1 µM (≈ 13.9 µg/mL) | C/C=C/C=C/C(=O)Oc1ccccc1 |
| 63.1 µM (≈ 13.7 µg/mL) | 50.1 µM (≈ 10.9 µg/mL) | 2.28 | 63.1 µM (≈ 13.7 µg/mL) | 57.5 µM (≈ 12.5 µg/mL) | 79.4 µM (≈ 17.3 µg/mL) | C/C=C/C=C/C(=O)Nc1ccccc1OC |
| 61.7 µM (≈ 12.4 µg/mL) | 55 µM (≈ 11.1 µg/mL) | 3 | 34.7 µM (≈ 6.98 µg/mL) | 55 µM (≈ 11.1 µg/mL) | 100 µM (≈ 20.1 µg/mL) | C/C=C/C=C/C(=O)Nc1ccc(C)cc1 |
| 69.2 µM (≈ 12.5 µg/mL) | 63.1 µM (≈ 11.4 µg/mL) | 0.75 | 79.4 µM (≈ 14.4 µg/mL) | 55 µM (≈ 9.97 µg/mL) | – | C/C=C/C=C/C(=O)N1CCOCC1 |
| 89.1 µM (≈ 18.1 µg/mL) | 53.7 µM (≈ 10.9 µg/mL) | 2.25 | 69.2 µM (≈ 14.1 µg/mL) | 53.7 µM (≈ 10.9 µg/mL) | 100 µM (≈ 20.3 µg/mL) | C/C=C/C=C/C(=O)Nc1cccc(O)c1 |
| 63.1 µM (≈ 14 µg/mL) | 50.1 µM (≈ 11.1 µg/mL) | 3.05 | 39.8 µM (≈ 8.82 µg/mL) | 50.1 µM (≈ 11.1 µg/mL) | 72.4 µM (≈ 16.1 µg/mL) | C/C=C/C=C/C(=O)Nc1cccc(Cl)c1 |
| 58.9 µM (≈ 12.4 µg/mL) | 58.9 µM (≈ 12.4 µg/mL) | 3.9 | 58.9 µM (≈ 12.4 µg/mL) | 50.1 µM (≈ 10.5 µg/mL) | 79.4 µM (≈ 16.7 µg/mL) | C/C=C/C=C/C(=O)OCCCCCCC |
| 61.7 µM (≈ 12.4 µg/mL) | 61.7 µM (≈ 12.4 µg/mL) | 3 | 61.7 µM (≈ 12.4 µg/mL) | 47.9 µM (≈ 9.64 µg/mL) | 79.4 µM (≈ 16 µg/mL) | C/C=C/C=C/C(=O)Nc1cccc(C)c1 |
| 60.3 µM (≈ 14 µg/mL) | 53.7 µM (≈ 12.5 µg/mL) | 2.49 | 53.7 µM (≈ 12.5 µg/mL) | 38.9 µM (≈ 9.03 µg/mL) | 60.3 µM (≈ 14 µg/mL) | C/C=C/C=C/C(=O)Nc1ccc([N+](=O)[O-])cc1 |
